Test results as given in PubChem BioAssay AID1963961 (Molecular Pharmacology Branch, DTP, NCI, 2024).
pIC50: −log10 of the molar value.

System: K98450-129-R-PDC multicell spheroids, viability
Assay: Anticancer human tumor K98450-129-R-PDC patient-derived colon adenocarcinoma cell line growth inhibition [PI3K]
Conditions: for pIC50: curve of first compound; for viability, T/C: stronger effect = lower value
Summary of the method: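 Combination activity was assessed by viability in multicellular tumor spheroids carrying HUVEC and MSC components. Agents were tested with PI3K inhibitors from a Cmax-based top dose (or 10 microM) downward in half-log increments.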

[1] = second compound 0.0316 µM, first compound 0.0316 µM
[2] = second compound 0.0316 µM, first compound 0.1 µM
[3] = second compound 0.0316 µM, first compound 0.316 µM
[4] = second compound 0.0316 µM, first compound 1 µM
[5] = second compound 0.0316 µM, first compound 3.16 µM
[6] = second compound 0.0316 µM, first compound 10 µM
[7] = second compound 0.1 µM, first compound 0.0316 µM
[8] = second compound 0.1 µM, first compound 0.1 µM
[9] = second compound 0.1 µM, first compound 0.316 µM
[10] = second compound 0.1 µM, first compound 1 µM
[11] = second compound 0.1 µM, first compound 3.16 µM
[12] = second compound 0.1 µM, first compound 10 µM
[13] = second compound 0.316 µM, first compound 0.0316 µM
[14] = second compound 0.316 µM, first compound 0.1 µM
[15] = second compound 0.316 µM, first compound 0.316 µM
[16] = second compound 0.316 µM, first compound 1 µM
[17] = second compound 0.316 µM, first compound 3.16 µM
[18] = second compound 0.316 µM, first compound 10 µM
[19] = second compound 1 µM, first compound 0.0316 µM
[20] = second compound 1 µM, first compound 0.1 µM
[21] = second compound 1 µM, first compound 0.316 µM
[22] = second compound 1 µM, first compound 1 µM
[23] = second compound 1 µM, first compound 3.16 µM
[24] = second compound 1 µM, first compound 10 µM
[25] = second compound 3.16 µM, first compound 0.0316 µM
[26] = second compound 3.16 µM, first compound 0.1 µM
[27] = second compound 3.16 µM, first compound 0.316 µM
[28] = second compound 3.16 µM, first compound 1 µM
[29] = second compound 3.16 µM, first compound 3.16 µM
[30] = second compound 3.16 µM, first compound 10 µM
[31] = second compound 10 µM, first compound 0.0316 µM
[32] = second compound 10 µM, first compound 0.1 µM
[33] = second compound 10 µM, first compound 0.316 µM
[34] = second compound 10 µM, first compound 1 µM
[35] = second compound 10 µM, first compound 3.16 µM
[36] = second compound 10 µM, first compound 10 µM
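Also: spheroids exposed to agents for seven days before read-out.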

SMILES: Cn1ncc(Cl)c1-c1cc(C(=O)NC(CN)Cc2cccc(F)c2)sc1Cl (centres undefined) + Cc1nc(NC(=O)N2CCCC2C(N)=O)sc1-c1ccnc(C(C)(C)C(F)(F)F)c1
- pIC50 (second compound 0.0316 µM): < 5.00
- pIC50 (second compound 0.1 µM): < 5.00
- pIC50 (second compound 0.316 µM): < 5.00
- pIC50 (second compound 1 µM): < 5.00
- pIC50 (second compound 3.16 µM): < 5.00
- pIC50 (second compound 10 µM): < 5.00
- viability, T/C [1]: 97.8%
- viability, T/C [2]: 95%
- viability, T/C [3]: 109%
- viability, T/C [4]: 93.1%
- viability, T/C [5]: 88.9%
- viability, T/C [6]: 74.3%
- viability, T/C [7]: 109%
- viability, T/C [8]: 99.4%
- viability, T/C [9]: 99.7%
- viability, T/C [10]: 90.8%
- viability, T/C [11]: 89.2%
- viability, T/C [12]: 78.3%
- viability, T/C [13]: 101%
- viability, T/C [14]: 93.1%
- viability, T/C [15]: 91.9%
- viability, T/C [16]: 92.1%
- viability, T/C [17]: 91.3%
- viability, T/C [18]: 76.9%
- viability, T/C [19]: 94%
- viability, T/C [20]: 91%
- viability, T/C [21]: 97.1%
- viability, T/C [22]: 89.6%
- viability, T/C [23]: 91.7%
- viability, T/C [24]: 72.9%
- viability, T/C [25]: 82.9%
- viability, T/C [26]: 85.1%
- viability, T/C [27]: 86.8%
- viability, T/C [28]: 80.4%
- viability, T/C [29]: 86.2%
- viability, T/C [30]: 63.8%
- viability, T/C [31]: 66.9%
- viability, T/C [32]: 69.6%
- viability, T/C [33]: 74.1%
- viability, T/C [34]: 72.5%
- viability, T/C [35]: 78.5%
- viability, T/C [36]: 52.2%

SMILES: Cn1nccc1Nc1nccc(-c2ccn(C(CO)c3ccc(Cl)c(F)c3)c(=O)c2)n1 (centres undefined) + Cc1nc(NC(=O)N2CCCC2C(N)=O)sc1-c1ccnc(C(C)(C)C(F)(F)F)c1
- pIC50 (second compound 0.0316 µM): < 5.00
- pIC50 (second compound 0.1 µM): < 5.00
- pIC50 (second compound 0.316 µM): < 5.00
- pIC50 (second compound 1 µM): < 5.00
- pIC50 (second compound 3.16 µM): < 5.00
- pIC50 (second compound 10 µM): < 5.00
- viability, T/C [1]: 107%
- viability, T/C [2]: 97.7%
- viability, T/C [3]: 103%
- viability, T/C [4]: 109%
- viability, T/C [5]: 97.2%
- viability, T/C [6]: 89.2%
- viability, T/C [7]: 114%
- viability, T/C [8]: 104%
- viability, T/C [9]: 100%
- viability, T/C [10]: 92.6%
- viability, T/C [11]: 96.7%
- viability, T/C [12]: 97.8%
- viability, T/C [13]: 104%
- viability, T/C [14]: 103%
- viability, T/C [15]: 94.1%
- viability, T/C [16]: 98.6%
- viability, T/C [17]: 98.5%
- viability, T/C [18]: 83.3%
- viability, T/C [19]: 91.6%
- viability, T/C [20]: 95.2%
- viability, T/C [21]: 93.5%
- viability, T/C [22]: 84.9%
- viability, T/C [23]: 98.6%
- viability, T/C [24]: 80.8%
- viability, T/C [25]: 78.9%
- viability, T/C [26]: 86.1%
- viability, T/C [27]: 87%
- viability, T/C [28]: 77.9%
- viability, T/C [29]: 85.4%
- viability, T/C [30]: 64.7%
- viability, T/C [31]: 71%
- viability, T/C [32]: 70.7%
- viability, T/C [33]: 72.2%
- viability, T/C [34]: 75%
- viability, T/C [35]: 77.8%
- viability, T/C [36]: 50.9%
